Measurements: paper PMC10439158, “The net electrostatic potential and hydration of ABCG2 affect substrate transport” (Nature Communications, 2023)

Key:
ABCG2 [1] = target: T1, ABCG2 (Homo sapiens, UniProt Q9UNQ0); assay: isothermal shift assay on membranes; Hoechst […] transport inhibition; 5D3 shift; disulfide crosslinking; assay type: cell-based; design: full-length ABCG2-WT in membrane vesicles / MEF cells
T1 sequence (Q9UNQ0 1-655): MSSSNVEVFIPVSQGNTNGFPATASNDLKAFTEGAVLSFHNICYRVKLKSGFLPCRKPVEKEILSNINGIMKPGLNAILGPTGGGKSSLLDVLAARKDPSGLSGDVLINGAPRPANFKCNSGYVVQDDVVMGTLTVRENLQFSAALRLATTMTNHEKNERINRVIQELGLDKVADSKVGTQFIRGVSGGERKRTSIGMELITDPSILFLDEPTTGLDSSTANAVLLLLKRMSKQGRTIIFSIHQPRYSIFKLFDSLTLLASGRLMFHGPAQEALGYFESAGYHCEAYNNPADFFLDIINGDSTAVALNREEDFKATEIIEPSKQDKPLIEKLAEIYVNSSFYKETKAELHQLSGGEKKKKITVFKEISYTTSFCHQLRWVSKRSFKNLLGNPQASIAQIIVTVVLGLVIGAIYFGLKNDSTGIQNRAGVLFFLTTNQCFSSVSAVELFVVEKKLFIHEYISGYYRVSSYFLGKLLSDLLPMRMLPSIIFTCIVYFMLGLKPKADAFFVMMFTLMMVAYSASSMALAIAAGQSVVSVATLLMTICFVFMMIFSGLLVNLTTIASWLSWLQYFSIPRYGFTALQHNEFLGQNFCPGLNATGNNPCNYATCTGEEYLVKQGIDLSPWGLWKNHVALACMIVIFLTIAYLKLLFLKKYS

ABCG2 [2] = target: T1, ABCG2; assay: cell-based; design: full-length ABCG2-WT in MEF cells; species or system Abcg2-KO MEFs expressing human ABCG2-WT; Inhibition of ABCG2-mediated Hoechst 33342 efflux; intracellular Hoechst 33342 fluorescence accumulation, normalized to vector control; details: 0.5 uM Hoechst 33342 substrate, 2 h, 37 °C; read-out: IC50 for transport inhibition in WT
Procedure: The intracellular accumulation of fluorescent Hoechst 33342, pheophorbide a, chlorin e6, and purpurin 18, ABCG2 substrates, was used to determine the function of ABCG2. […] Thereafter, the medium was removed, and cells were washed twice with 200 μL ice-cold PBS and the fluorescence of Hoechst 33342 was then quantitatively determined with a Synergy H4 microplate reader (BioTek, Winooski, VT, USA) at an excitation wavelength of 355 nm and an emission wavelength of 460 nm. The accumulation of Hoechst 33342 was normalized to protein concentration as determined using the BCA Protein Assay Kit (Pierce, Rockford, IL, USA). The data were normalized by the proportion accumulated relative (%) to vector control. For the time-dependent Hoechst 33342 accumulation assay, 10 μM Hoechst 33342 was treated for different time periods (0.5, 1, 1.5, 2, 5, 10, 20, 30, 60, and 90 min). Relative intracellular Hoechst 33342 levels in the MEFs were normalized to vector control at 90 min. For the other fluorescent substrate accumulation assay, 0.5 μM pheophorbide a, 5 μM chlorin e6, or 5 μM purpurin 18 were treated for 1 h at 37 °C in the dark. The intracellular accumulation of pheophorbide a, purpurin 18, or chlorin e6 was measured at an excitation wavelength of 405 nm and an emission wavelength of 667 nm. […] Thereafter, the medium was removed and cells were washed twice with 1 mL ice-cold PBS. […] The total radioactivity was measured by liqu Apparent EC50 and IC50 values were calculated from dose-response data using nonlinear regression analysis. All experiments were independently repeated at least three times. […] Non-polar residues are grey, polar residues are green, and acidic residues are red.

IC50 (ABCG2 [2]): 50 nM
Structure (SMILES): CS(=O)(=O)CCNCc1ccc(-c2ccc3ncnc(Nc4ccc(OCc5cccc(F)c5)c(Cl)c4)c3c2)o1 [lapatinib]
isothermal shift assay on membranes; Hoechst 33342 transport inhibition; 5D3 shi (ABCG2 [1]): ABCG2 inhibitors, Ko143, tariquidar, and lapatinib, strongly and dose-dependently thermally stabilized ABCG2-WT
